In ChEMBL document CHEMBL1138707, “Bridgehead modification of trihalocycloheptabenzopyridine leads to a potent farnesyl protein transferase inhibitor with improved oral metabolic stability” (Bioorg Med Chem Lett, 2004):

Columns and labels:
[1] = Area under the curve in rats by administering perorally; assay type: ADME; details: rat, in vivo, po
[2] = target: T1, Protein farnesyltransferase (Homo sapiens, UniProt P49354+P49356); test: Inhibition of [3H]FPP incorporation into H-ras CVLS by Farnesyltransferase; assay type: protein-complex assay
[3] = Inhibition of soft agar colony formation in H-Ras transformed cells; assay type: functional, cell-based
[4] = Inhibition of H-Ras transformed NIH3T3 cell proliferation; assay type: functional, cell-based
[5] = Inhibition of COS cell proliferation; assay type: functional, cell-based
[6] = Oral bioavailability in rat; assay type: ADME, organism-based; details: in vivo
[7] = target: T1, Protein farnesyltransferase; test: Percent inhibition of [3H]FPP incorporation into H-ras CVLS by Farnesyltransferase at 17; assay type: protein-complex assay; details: concentration not given here

| SMILES | AUC [1] [µg/h/mL] | IC50 [3] [nM] | also measured |
| --- | --- | --- | --- |
| NC(=O)N1CCC(CC(=O)N2CCC([C@@H]3c4ncc(Br)cc4C=Cc4cc(Cl)cc(Br)c43)CC2)CC1 | 7 |  |  |
| O=C(Cc1cc[n+]([O-])cc1)N1CCC([C@@H]2c3ncc(Br)cc3C=Cc3cc(Cl)cc(Br)c32)CC1 | 15.5 | 30 | IC50 [2]: 0.32 nM |
| NC(=O)N1CCC(CC(=O)N2CCC([C@H]3c4ncc(Br)cc4CCc4cc(Cl)cc(Br)c43)CC2)CC1 [LONAFARNIB] | 24.1 | 70 | IC50 [4]: 72000 nM; IC50 [5]: 10 nM; bioavailability [6]: 76% |
| O=C(Cc1cc[n+]([O-])cc1)N1CCC([C@H]2c3ncc(Br)cc3C=Cc3cc(Cl)cc(Br)c32)CC1 |  |  | inhibition [7]: 44% |
| CS(=O)(=O)N1CCC([C@@H]2c3ncc(Br)cc3C=Cc3cc(Cl)cc(Br)c32)CC1 | 45.4 | > 500 |  |
